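Test compounds were applied to cells in 96-well plates for 48 hours at 5 doses. TGI marks complete inhibition of growth.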
Legend:
Test in all cases: growth of human tumour cells (NCI), 48 h
786-0 renal = test system: 786-0 renal
ACHN renal = test system: ACHN renal
BT-549 breast = test system: BT-549 breast
COLO 205 colon = test system: COLO 205 colon
DU-145 prostate = test system: DU-145 prostate
HCC-2998 colon = test system: HCC-2998 colon
HCT-15 colon = test system: HCT-15 colon
HOP-62 NSCLC = test system: HOP-62 NSCLC
HT29 colon = test system: HT29 colon
KM12 colon = test system: KM12 colon
MDA-MB-231 breast = test system: MDA-MB-231 breast
MDA-MB-435 = test system: MDA-MB-435
MOLT-4 leukemia = test system: MOLT-4 leukemia
NCI-H226 lung = test system: NCI-H226 lung
OVCAR-3 ovarian = test system: OVCAR-3 ovarian
SF-268 CNS = test system: SF-268 CNS
SNB-75 CNS = test system: SNB-75 CNS
TK-10 renal = test system: TK-10 renal
U251 CNS = test system: U251 CNS
UACC-257 melanoma = test system: UACC-257 melanoma

Row | Structure (SMILES) | TGI (786-0 renal) | TGI (ACHN renal) | TGI (BT-549 breast) | TGI (COLO 205 colon) | TGI (DU-145 prostate) | TGI (HCC-2998 colon) | TGI (HCT-15 colon) | TGI (HOP-62 NSCLC) | TGI (HT29 colon) | TGI (KM12 colon) | TGI (MDA-MB-231 breast) | TGI (MDA-MB-435) | TGI (MOLT-4 leukemia) | TGI (NCI-H226 lung) | TGI (OVCAR-3 ovarian) | TGI (SF-268 CNS) | TGI (SNB-75 CNS) | TGI (TK-10 renal) | TGI (U251 CNS) | TGI (UACC-257 melanoma)
1 | Cc1ccccc1NC(=O)/C(C#N)=N\Nc1nc[nH]c1C(N)=O | > 100 µM | > 100 µM | > 100 µM | > 100 µM | > 100 µM | > 100 µM | > 100 µM | > 100 µM | > 100 µM | > 100 µM | > 100 µM | > 100 µM | > 100 µM | > 100 µM | > 100 µM | > 100 µM | > 100 µM | > 100 µM | > 100 µM | > 100 µM
2 | CC(C)(CCCCC(C)(C)NCC1COc2ccccc2O1)NCC1COc2ccccc2O1 (configuration not stated) | > 10 µM | > 10 µM | > 10 µM | 4.12 µM | > 10 µM | 4.73 µM | > 10 µM | > 10 µM | 7.08 µM | > 10 µM | > 10 µM | 3.6 µM | > 10 µM | > 10 µM | > 10 µM | > 10 µM | > 10 µM | > 10 µM | > 10 µM | 4.1 µM
3 | COc1ccc(-n2cnc3c(NC(C)(C)C(=O)O)ncnc32)cc1 | > 100 µM | > 100 µM | > 100 µM | > 100 µM | > 100 µM | > 100 µM | > 100 µM | > 100 µM | > 100 µM | > 100 µM | > 100 µM | > 100 µM | > 100 µM | > 100 µM | > 100 µM | > 100 µM | > 100 µM | > 100 µM | > 100 µM | > 100 µM
4 | COc1cc(/C=N/NC2=NCCCN2)ccc1O | > 100 µM | > 100 µM | > 100 µM | > 100 µM | > 100 µM | > 100 µM | > 100 µM | > 100 µM | > 100 µM | > 100 µM | > 100 µM | > 100 µM | > 100 µM | > 100 µM | > 100 µM | > 100 µM | > 100 µM | > 100 µM | > 100 µM | > 100 µM
5 | CC(Oc1ccc(Cl)cc1Cl)C(=O)NN1C(=O)CSC1c1ccc(Cl)cc1 (configuration not stated) | > 100 µM | > 100 µM | > 100 µM | > 100 µM | > 100 µM | > 100 µM | > 100 µM | > 100 µM | > 100 µM | > 100 µM | 97.4 µM | > 100 µM | 80.1 µM | 39.2 µM | > 100 µM | > 100 µM | 72.7 µM | > 100 µM | > 100 µM | > 100 µM
6 | N#CC1=C(N2CCOCC2)CCC1 | > 100 µM | > 100 µM | > 100 µM | > 100 µM | > 100 µM | > 100 µM | > 100 µM | > 100 µM | > 100 µM | > 100 µM | > 100 µM | > 100 µM | > 100 µM | > 100 µM | > 100 µM | > 100 µM | > 100 µM | > 100 µM | > 100 µM | > 100 µM
7 | COC(=O)[C@]12CSC[C@H]1C[C@H](c1ccc(N(C)C)cc1)N2 | > 100 µM | > 100 µM | > 100 µM | > 100 µM | > 100 µM | > 100 µM | > 100 µM | > 100 µM | – | > 100 µM | > 100 µM | > 100 µM | > 100 µM | > 100 µM | > 100 µM | > 100 µM | > 100 µM | > 100 µM | > 100 µM | > 100 µM
8 | O=C1c2cccnc2C(=O)c2c1nc1ccccc1c2-c1cncc(-c2c3c(nc4ccccc24)C(=O)c2cccnc2C3=O)c1 | 0.228 µM | 0.437 µM | 1.52 µM | 0.617 µM | 0.565 µM | 1.47 µM | 0.414 µM | – | 1.28 µM | 2 µM | 0.928 µM | 0.9 µM | 0.788 µM | 0.883 µM | 3.22 µM | 1.25 µM | 1.6 µM | 2.86 µM | 1.22 µM | 1.08 µM
9 | CO[C@H](c1ccccc1)[C@H](O)[C@](O)(c1ccccc1)P(=O)(OC)OC | > 100 µM | > 100 µM | > 100 µM | > 100 µM | > 100 µM | > 100 µM | > 100 µM | – | > 100 µM | > 100 µM | > 100 µM | > 100 µM | > 100 µM | > 100 µM | > 100 µM | > 100 µM | > 100 µM | > 100 µM | > 100 µM | > 100 µM
10 | Cc1ccnc2c1ccc1nc3ccccc3n12 | > 100 µM | – | > 100 µM | > 100 µM | > 100 µM | > 100 µM | – | > 100 µM | > 100 µM | > 100 µM | > 100 µM | > 100 µM | > 100 µM | > 100 µM | > 100 µM | 99.6 µM | > 100 µM | > 100 µM | – | > 100 µM
11 | CC(C)=CCC[C@@H](C)C1=C(Nc2ccccc2)C(O)=C(C)C(=O)C1=O | > 48.5 µM | – | 23.1 µM | 13.1 µM | 28.2 µM | > 41.4 µM | 13.4 µM | 15.6 µM | 15.3 µM | 20.7 µM | > 27.4 µM | > 48.3 µM | > 22.7 µM | 18.1 µM | 8.97 µM | 25.2 µM | 15.6 µM | > 55.1 µM | > 56.1 µM | 41.9 µM
12 | O=c1[nH]c(=O)n(C2CC(O)C(CO)O2)c2nc3ccc4ccccc4c3nc12 (configuration not stated) | > 100 µM | > 100 µM | > 100 µM | > 100 µM | > 100 µM | > 100 µM | > 100 µM | 98.3 µM | – | > 100 µM | > 100 µM | > 100 µM | 54.3 µM | > 100 µM | > 100 µM | > 100 µM | > 100 µM | > 100 µM | > 100 µM | > 100 µM
